Laboratory results reported in ChEMBL document CHEMBL5357078, “Synthesis and Structural Optimization of ATG4B Inhibitors for the Attenuation of Autophagy in Glioblastoma” (ACS Med Chem Lett, 2024).
The source made the active and inactive calls.

What was measured:
Assay type in all cases: functional, cell-based
[1] = system: GSC83; assay: Induction of autophagy in human GSC83 cells assessed as degradation of p62/SQSTM1 substrate incubated for 72 hrs by immunoblotting analysis
[2] = system: GSC576; assay: Induction of autophagy in human GSC576 cells assessed as inhibition of ATG4B-induced LC3-1 to LC3-2 conversion incubated for 72 hrs by immunoblotting analysis
[3] = system: GSC83; assay: Induction of autophagy in human GSC83 cells assessed as inhibition of sphere formation upto 100 uM incubated for 7 days; details: time 7.0 day
[4] = system: GSC576; assay: Induction of autophagy in human GSC576 cells assessed as degradation of p62/SQSTM1 substrate incubated for 72 hrs by immunoblotting analysis
[5] = system: GSC83; assay: Induction of autophagy in human GSC83 cells assessed as inhibition of ATG4B-induced LC3-1 to LC3-2 conversion incubated for 72 hrs by immunoblotting analysis
[6] = system: GSC576; assay: Induction of autophagy in human GSC576 cells assessed as inhibition of sphere formation upto 100 uM incubated for 7 days; details: time 7.0 day
[7] = system: GSC83; assay: Antiproliferative activity against human GSC83 cells assessed as reduction in cell viability upto 100 uM incubated for 72 hrs by celltiter glo luminescent assay
[8] = system: GSC576; assay: Antiproliferative activity against human GSC576 cells assessed as reduction in cell viability upto 100 uM incubated for 72 hrs by celltiter glo luminescent assay
[9] = system: GSC576; assay: Induction of autophagy in human GSC576 cells assessed as inhibition of sphere formation upto 10 uM incubated for 7 days; details: time 7.0 day
[10] = system: GSC83; assay: Induction of autophagy in human GSC83 cells assessed as inhibition of sphere formation upto 10 uM incubated for 7 days; details: time 7.0 day

Measured: Activity

S=C(Nc1ccccn1)c1ccccn1
active: [1] | [2] | [3] | [4] | [5] | [6]

S=C(Nc1ccccn1)c1ccc2ccccc2n1
not listed: [3] | [6]
active: all other assays above
